# Source: ChEMBL document CHEMBL4613318, “Benzofuran-Based Carboxylic Acids as Carbonic Anhydrase Inhibitors and Antiproliferative Agents against Breast Cancer” (ACS Med Chem Lett, 2020)
# Assays:
# Homo sapiens [1] = species on record: Homo sapiens; assay: (§1) Selectivity index, ratio of Ki for recombinant human carbonic anhydrase 1 preincubated with enzyme for 15 mins by phenol red dye based stopped flow CO2 hydration assay to Ki for recombinant human carbonic anhydrase 12 preincubated with enzyme for 15 mins by phenol red dye based stopped flow CO2 hydration assay
# Carbonic anhydrase 9 = Carbonic anhydrase 9 (Homo sapiens, UniProt Q16790)
# Description: Inhibition of recombinant human carbonic anhydrase 9 preincubated with enzyme for 15 mins by phenol red dye based stopped flow CO2 hydration assay
# Carbonic anhydrase 1 = Carbonic anhydrase 1 (Homo sapiens, UniProt P00915); assay: Inhibition of recombinant human carbonic anhydrase 1 preincubated with enzyme for 15 mins by phenol red dye based stopped flow CO2 hydration assay
# Carbonic anhydrase 12 = Carbonic anhydrase 12 (Homo sapiens, UniProt O43570); assay: Inhibition of recombinant human carbonic anhydrase 12 preincubated with enzyme for 15 mins by phenol red dye based stopped flow CO2 hydration assay
# Homo sapiens [2] = species on record: Homo sapiens; assay: as §1, with “9” for “12”
# Homo sapiens [3] = species on record: Homo sapiens; assay: as §1, with “carbonic anhydrase 2 preincubated with” for “carbonic anhydrase 1 preincubated with”
# Carbonic anhydrase 2 = Carbonic anhydrase 2 (Homo sapiens, UniProt P00918); assay: Inhibition of recombinant human carbonic anhydrase 2 preincubated with enzyme for 15 mins by phenol red dye based stopped flow CO2 hydration assay
# Homo sapiens [4] = species on record: Homo sapiens; assay: as §1, with “anhydrase 2” for “anhydrase 1”, “anhydrase 9” for “anhydrase 12”
# MDA-MB-231 = assay: cells; settings: Homo sapiens, MDA-MB-231, 48 h
# MCF7 = assay: Antiproliferative activity against human MCF7 cells assessed as reduction in cell viability incubated for 48 hrs by SRB assay; type: functional, cell-based; settings: MCF7, 48 h
# Carbonic anhydrase 1, sequence (P00915 whole entry): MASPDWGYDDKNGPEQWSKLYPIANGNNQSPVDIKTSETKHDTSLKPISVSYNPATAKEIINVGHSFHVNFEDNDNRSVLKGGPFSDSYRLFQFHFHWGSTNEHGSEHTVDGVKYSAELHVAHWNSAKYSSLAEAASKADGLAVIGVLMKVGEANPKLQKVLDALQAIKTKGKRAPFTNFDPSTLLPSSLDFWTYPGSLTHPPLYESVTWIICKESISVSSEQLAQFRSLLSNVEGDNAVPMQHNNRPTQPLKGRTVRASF
# Carbonic anhydrase 12, sequence (O43570 whole entry): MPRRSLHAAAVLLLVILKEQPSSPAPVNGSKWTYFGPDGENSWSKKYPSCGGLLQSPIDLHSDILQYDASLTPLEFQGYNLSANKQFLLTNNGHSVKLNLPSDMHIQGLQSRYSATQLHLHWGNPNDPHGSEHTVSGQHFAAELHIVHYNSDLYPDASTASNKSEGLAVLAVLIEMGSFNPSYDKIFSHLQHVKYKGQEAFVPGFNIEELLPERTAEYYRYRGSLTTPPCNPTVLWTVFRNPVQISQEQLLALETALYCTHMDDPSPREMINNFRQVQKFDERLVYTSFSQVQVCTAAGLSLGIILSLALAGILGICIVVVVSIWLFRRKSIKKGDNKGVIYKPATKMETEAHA
Ratio Ki (Homo sapiens [1]),Ki (Carbonic anhydrase 9) [µM],Ki (Carbonic anhydrase 1) [µM],Ki (Carbonic anhydrase 12) [µM],Ratio Ki (Homo sapiens [2]),Ratio Ki (Homo sapiens [3]),Ki (Carbonic anhydrase 2) [µM],Ratio Ki (Homo sapiens [4]),IC50 (MDA-MB-231) [µM],IC50 (MCF7) [µM],SMILES
10,19,> 100,10.1,5,7,67.1,4,,,O=C(O)CNC(=O)c1ccc(NC(=O)Nc2cc3cc(Br)ccc3o2)cc1
5,5.1,4.5,0.88,,4,3.1,,,,Cc1c(NC(=O)Nc2ccc(C(=O)O)cc2)oc2ccccc12
24,35.7,64.7,2.7,2,10,25.8,,,,Cc1c(NC(=O)Nc2ccc(C(=O)NCC(=O)O)cc2)oc2ccccc12
> 29,1.6,> 100,3.4,> 63,2,7.9,5,,,Cc1c(NC(=O)Nc2ccccc2C(=O)O)oc2ccccc12
,0.91,32.8,2.2,,,10.1,,,,Cc1c(NC(=O)Nc2cccc(C(=O)O)c2)oc2ccccc12
,0.79,33.2,2.3,,,37,,,,O=C(Nc1cccc(C(=O)O)c1)Nc1cc2cc(Br)ccc2o1
,0.56,20.5,1.6,,,7.2,,,,O=C(Nc1ccc(C(=O)O)cc1)Nc1cc2cc(Br)ccc2o1
,,,,,,,,2.36,1.43,COc1cccc2c1C(=O)c1c(O)c3c(c(O)c1C2=O)C[C@@](O)(C(=O)CO)C[C@@H]3O[C@H]1C[C@H](N)[C@H](O)[C@H](C)O1 [DOXORUBICIN]
13,5.1,> 100,8,20,,4.1,,,,O=C(Nc1cc2cc(Br)ccc2o1)Nc1ccccc1C(=O)O
